The nature of one series: in vivo. To be noted: mouse.
The subject of series [1] is conscious spontaneously hypertensive rats. Kind of series: Antihypertensive activity in conscious spontaneously hypertensive rats. Format: in vivo, rat (spontaneously hypertensive Okamoto strain). The protocol: Male albino rats, spontaneously hypertensive Okamoto strain, fasting 16 hours before the experiments were used. The conscious animals were restrained in a plastic cage and a cuff was secured around the tail. The cuff was connected with an electronic blood pressure recorder. The systolic blood pressure and the heart rate were measured before and 2, 4, 6, and 24 hours after the administration of compounds. The compounds were suspended or dissolved in carboxymethylcellulose 0.5%. […] There are also included, for comparison, the results obtained under the same experimental conditions with some known antihypertensive drugs, and the approximate oral LD50 in mice are stated.

We go through five compounds from patent US4057636A, “Antihypertensive pyridylguanidine compounds” (Leo Pharmaceutical Products Ltd. A/S, priority 1974, dated 1977).

Structures are written as SMILES. Bounds are passed on as bounds.

Take `NNc1nncc2ccccc12` [Hydralazine, reference compound]: in “in vivo” (mice, oral, printed with (114-130)), the LD50 came out at 122 mg/kg. The BP in series [1] (2.0 mg/kg, 2 hours) was found to be 162 mm Hg; in series [1] (2.0 mg/kg, 4 hours) it was 163 mm Hg; in series [1] (2.0 mg/kg, 24 hours), 174 mm Hg; in series [1] (5.0 mg/kg, 2 hours) it was 150 mm Hg; in series [1] (5.0 mg/kg, 4 hours), 152 mm Hg; in series [1] (5.0 mg/kg, 24 hours) it was 170 mm Hg. The HR in series [1] (2.0 mg/kg, 2 hours) came to 425 beats/minute; in series [1] (2.0 mg/kg, 4 hours), 413 beats/minute; in series [1] (2.0 mg/kg, 24 hours), 379 beats/minute; in series [1] (5.0 mg/kg, 2 hours) it was 405 beats/minute; in series [1] (5.0 mg/kg, 4 hours), 410 beats/minute; in series [1] (5.0 mg/kg, 24 hours) it was 380 beats/minute.

For the compound `N=c1nc(N2CCCCC2)cc(N)n1O` [Minoxidil, 6-Amino-1,2-dihydro-1-hydroxy-2-imino-4-piperid-1-ylpyrimidine, reference compound], the BP is given as 161 mm Hg in series [1] (0.5 mg/kg, 2 hours); 153 mm Hg in series [1] (0.5 mg/kg, 4 hours); 167 mm Hg in series [1] (0.5 mg/kg, 24 hours); 158 mm Hg in series [1] (1.0 mg/kg, 2 hours); 146 mm Hg in series [1] (1.0 mg/kg, 4 hours); 169 mm Hg in series [1] (1.0 mg/kg, 24 hours). For the same compound, the HR in series [1] (0.5 mg/kg, 2 hours) is reported as 409 beats/minute; in series [1] (0.5 mg/kg, 4 hours), 411 beats/minute; in series [1] (0.5 mg/kg, 24 hours), 400 beats/minute; in series [1] (1.0 mg/kg, 2 hours) it was 431 beats/minute; in series [1] (1.0 mg/kg, 4 hours), 424 beats/minute; in series [1] (1.0 mg/kg, 24 hours), 407 beats/minute.

As for `CCC(C)(CC)NC(=NC#N)Nc1cccnc1` [P 1066, N"-cyano-N-(1-ethyl-1-methylpropyl)-N'-3-pyridylguanidine], the 50% lethal dose (LD50) in the series “in vivo” (po, p.o. (mice), approximate) was more than 1000 mg/kg. Also, the BP in series [1] (0.05 mg/kg, 2 hours) is on record as 155 mm Hg; in series [1] (0.05 mg/kg, 4 hours), 170 mm Hg; in series [1] (0.05 mg/kg, 24 hours), 178 mm Hg; in series [1] (0.5 mg/kg, 2 hours), 146 mm Hg; in series [1] (0.5 mg/kg, 4 hours), 143 mm Hg; in series [1] (0.5 mg/kg, 24 hours), 181 mm Hg. In addition, the BP in series [1] (2.5 mg/kg, 2 hours) was 113 mm Hg; in series [1] (2.5 mg/kg, 4 hours), 100 mm Hg; in series [1] (2.5 mg/kg, 6 hours), 114 mm Hg; in series [1] (2.5 mg/kg, 24 hours), 152 mm Hg; in series [1] (10.0 mg/kg, 2 hours), less than 100 mm Hg; in series [1] (10.0 mg/kg, 4 hours), less than 100 mm Hg. For the same compound, the BP in series [1] (10.0 mg/kg, 6 hours) is less than 100 mm Hg; in series [1] (10.0 mg/kg, 24 hours), 126 mm Hg. Also, the HR in series [1] (0.05 mg/kg, 2 hours) was 462 beats/minute; in series [1] (0.05 mg/kg, 4 hours), 417 beats/minute; in series [1] (0.05 mg/kg, 24 hours), 413 beats/minute; in series [1] (0.5 mg/kg, 2 hours) it was 437 beats/minute; in series [1] (0.5 mg/kg, 4 hours), 413 beats/minute; in series [1] (0.5 mg/kg, 24 hours), 413 beats/minute. In addition, the HR is 386 beats/minute in series [1] (2.5 mg/kg, 2 hours); 375 beats/minute in series [1] (2.5 mg/kg, 6 hours); 335 beats/minute in series [1] (2.5 mg/kg, 24 hours); 336 beats/minute in series [1] (10.0 mg/kg, 24 hours).

With `CCCC(C)(C)NC(=NC#N)Nc1cccnc1` [P 1067, N"-cyano-N-(1,1-dimethylbutyl)-N'-3-pyridylcuanidine], the median lethal dose (LD50) in the series “in vivo” (po) was more than 1000 mg/kg. The BP is reported as 158 mm Hg in series [1] (0.5 mg/kg, 2 hours); 168 mm Hg in series [1] (0.5 mg/kg, 4 hours); 176 mm Hg in series [1] (0.5 mg/kg, 24 hours). Besides, the HR in series [1] (0.5 mg/kg, 2 hours) is 440 beats/minute; in series [1] (0.5 mg/kg, 4 hours), 413 beats/minute; in series [1] (0.5 mg/kg, 24 hours) it was 408 beats/minute.

With `CCC(CC)(CC)NC(=NC#N)Nc1cccnc1` [P 1068, N"-cyano-N-(1,1-diethylpropyl)-N'-3-pyridylguanidine], the LD50 in the series “in vivo” (po, p.o. (mice), approximate) is more than 1000 mg/kg. Also, the BP in series [1] (0.5 mg/kg, 2 hours) was 131 mm Hg; in series [1] (0.5 mg/kg, 4 hours), 146 mm Hg; in series [1] (0.5 mg/kg, 24 hours), 180 mm Hg. In addition, the HR was found to be 473 beats/minute in series [1] (0.5 mg/kg, 2 hours); 437 beats/minute in series [1] (0.5 mg/kg, 4 hours); 383 beats/minute in series [1] (0.5 mg/kg, 24 hours).

Usually LD50 stands for the dose at which mortality reaches 50%.
